The source of these data is patent US9556201B2, “Bicyclic pyridines and analogs as sirtuin modulators” (GLAXOSMITHKLINE LLC, priority 2009, dated 2017).

For the experiment, the target named is T1, SIRT1 (Homo sapiens, UniProt Q96EB6).
T1 sequence (Q96EB6 1-747): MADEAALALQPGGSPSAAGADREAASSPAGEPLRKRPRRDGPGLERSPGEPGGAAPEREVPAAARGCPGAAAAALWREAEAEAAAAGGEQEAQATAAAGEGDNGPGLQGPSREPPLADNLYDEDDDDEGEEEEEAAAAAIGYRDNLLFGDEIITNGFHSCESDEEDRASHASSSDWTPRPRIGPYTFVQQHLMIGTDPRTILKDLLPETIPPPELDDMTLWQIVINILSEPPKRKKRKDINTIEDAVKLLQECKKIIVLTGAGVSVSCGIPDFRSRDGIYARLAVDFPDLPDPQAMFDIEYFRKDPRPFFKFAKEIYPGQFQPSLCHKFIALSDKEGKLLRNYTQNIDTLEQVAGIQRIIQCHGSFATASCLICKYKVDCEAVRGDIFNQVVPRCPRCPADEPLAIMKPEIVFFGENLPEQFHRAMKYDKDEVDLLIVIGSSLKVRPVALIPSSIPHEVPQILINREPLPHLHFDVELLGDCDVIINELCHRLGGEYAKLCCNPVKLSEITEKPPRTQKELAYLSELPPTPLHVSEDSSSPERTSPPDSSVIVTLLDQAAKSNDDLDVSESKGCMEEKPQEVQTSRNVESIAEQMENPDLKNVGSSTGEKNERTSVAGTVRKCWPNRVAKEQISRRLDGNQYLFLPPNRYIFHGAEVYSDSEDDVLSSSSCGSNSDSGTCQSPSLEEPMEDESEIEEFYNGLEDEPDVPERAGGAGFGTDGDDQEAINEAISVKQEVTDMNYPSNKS
Nature of the experiment: Mass spectrometry based assay to identify modulators of SIRT1 activity (deacetylation of p53-based acetylated peptide substrate). It counts as biochemical. The settings on record: for Emax: 25 min, read-out: % FOLD ACT. (percent maximum fold activation); for Emax / EC1.5: SIRT1 activation. From the text:
A mass spectrometry based assay was used to identify modulators of SIRT1 activity. The mass spectrometry based assay utilizes a peptide having 20 amino acid residues as follows: Ac-EE-K(biotin)-GQSTSSHSK(Ac)NleSTEG-K(5TMR)-EE-NH2 (SEQ ID NO: 1) wherein K(Ac) is an acetylated lysine residue and Nle is a norleucine. The peptide is labeled with the fluorophore 5TMR (excitation 540 nm/emission 580 nm) at the C-terminus. The sequence of the peptide substrate is based on p53 with several modifications. In addition, the methionine residue naturally present in the sequence was replaced with the norleucine because the methionine may be susceptible to oxidation during synthesis and purification.
The mass spectrometry assay is conducted as follows: […] peptide substrate and 120 μM βNAD^+ is incubated with 10 nM SIRT1 for 25 minutes at 25° C. in a reaction buffer (50 mM Tris-acetate pH 8, 137 mM NaCl, 2.7 mM KCl, 1 mM MgCl2, 5 mM DTT, 0.05% BSA). Test compounds may be added to the reaction as described above. The SirT1 gene is cloned into a T7-promoter containing vector and transformed into BL21(DE3). After the 25 minute incubation with SIRT1, 10 μL of 10% formic acid is added to stop the reaction. Reactions are sealed and frozen for later mass spec analysis. Determination of the mass of the substrate peptide allows for precise determination of the degree of acetylation (i.e. starting material) as compared to deacetylated peptide (product).
A control for inhibition of sirtuin activity is conducted by adding 1 μL of 500 mM nicotinamide as a negative control at the start of the reaction (e.g., permits determination of maximum sirtuin inhibition). A control for activation of sirtuin activity is conducted using 10 nM of sirtuin protein, with 1 μL of DMSO in place of compound, to determine the amount of deacetylation of the substrate at a given timepoint within the linear range of the assay. This timepoint is the same as that used for test compounds and, within the linear range, the endpoint represents a change in velocity.
For the above assay, SIRT1 protein was expressed and purified as follows. The SirT1 gene was cloned into a T7-promoter containing vector and transformed into BL21(DE3). The protein was expressed by induction with 1 mM IPTG as an N-terminal His-tag fusion protein at 18° C. overnight and harvested at 30,000×g. Cells were lysed with lysozyme in lysis buffer (50 mM Tris-HCl, 2 mM Tris[2-carboxyethyl]phosphine (TCEP), 10 μM ZnCl2, 200 mM NaCl) and further treated with sonication for 10 min for complete lysis. The protein was purified over a Ni-NTA column (Amersham) and fractions containing pure protein were pooled, concentrated and run over a sizing column (Sephadex S200 26/60 global). The peak containing soluble protein was collected and run on an Ion-exchange column (MonoQ). Gradient elution (200 mM-500 mM NaCl) yielded pure protein. This protein was concentrated and dialyzed against dialysis buffer (20 mM Tris-HCl, 2 mM TCEP) overnight. The protein was aliquoted and frozen at −80° C. until further use.

For `CC1(C)CCN(C(=O)Nc2ccc(F)cn2)c2nc(-c3cccc(C(F)(F)F)c3)ccc21` [Compound 843], the EC1.5 (concentration giving 1.5-fold activation) was in the range of 1 to 25 µM and the Emax is not above 200%.

`O=C(Nc1ccc(F)cn1)N1CCCOc2ccc(-c3cccc(Cl)c3)nc21` [Compound 762]: the EC1.5 (concentration giving 1.5-fold activation) is 1 to 25 µM and the Emax was not above 200%.

Regarding `O=C1CCCN(C(=O)Nc2ccncc2)c2nc(-c3cccc(C(F)(F)F)c3)ccc21` [Compound 828], the EC1.5 (concentration giving 1.5-fold activation) lay within 1 to 25 µM and the Emax was more than 200%.

As to `Cc1cccc(NC(=O)N2CCCC(F)(F)c3ccc(-c4cccc(Cl)c4)nc32)n1` [Compound 780], the EC1.5 (concentration giving 1.5-fold activation) was more than 25 µM and the Emax is not above 200%.

For the compound `O=C1CCCN(C(=O)Nc2cccnc2)c2nc(-c3cccc(C(F)(F)F)c3)ccc21` [Compound 829], the EC1.5 (concentration giving 1.5-fold activation) was 1 to 25 µM and the Emax is more than 200%.

As for `Cc1cncc(NC(=O)N2CCCOc3ccc(-c4cccc(F)c4)nc32)c1` [Compound 581], the Emax is more than 200% and the EC1.5 result is listed as “B (EC1.5 1-25 μM)”.

For `O=C(Oc1cccnc1)N1CCOc2ccc(-c3cccc(C(F)(F)F)c3)nc21` [Compound 562], the Emax is not above 200% and the EC1.5 result is “C (EC1.5>25 μM)”.

Turning to `CCN1CCCN(C(=O)Nc2ccncn2)c2nc(-c3cccc(Cl)c3)ccc21` [Compound 809], the EC1.5 (concentration giving 1.5-fold activation) fell in the range of 1 to 25 µM and the Emax was more than 200%.

Regarding `O=C(c1cccc(OCC(O)CO)c1)N1CCCc2ccc(-c3cccc(C(F)(F)F)c3)nc21` (stereo not shown) [Compound 642, (3-(2,3-dihydroxypropoxy)phenyl)(7-(3-(trifluoromethyl)phenyl)-3,4-dihydro-1,8-naphthyridin-1(2H)-yl)methanone], the Emax is not above 200% and the EC1.5 result was “C (EC1.5>25 μM)”.

`O=C(Nc1cncc(OCC(O)CO)n1)N1CCCOc2ccc(-c3cccc(Cl)c3)nc21` (stereo not shown) [Compound 858]: the EC1.5 (concentration giving 1.5-fold activation) is less than 1 µM and the Emax is more than 200%.

Take `CC1(C)CCN(C(=O)Nc2ccncc2F)c2nc(-c3cccc(C(F)(F)F)c3)ccc21` [Compound 847]: the EC1.5 (concentration giving 1.5-fold activation) was more than 25 µM and the Emax was not above 200%.

`CN1C(=O)CN(C(=O)Nc2cccnn2)c2nc(-c3cccc(C(F)(F)F)c3)ccc21` [Compound 528]: the Emax is not above 200% and the EC1.5 entry is given as “C (EC1.5>25 μM)”.

On to `Cc1cc(OCC(O)CO)nc(NC(=O)N2CCC(C)(C)c3ccc(-c4cccc(C(F)(F)F)c4)nc32)n1` (stereo not shown) [Compound 844], for which the EC1.5 (concentration giving 1.5-fold activation) fell in the range of 1 to 25 µM and the Emax was more than 200%.

Take `CC1CCN(C(=O)Nc2ccccn2)c2nc(-c3cccc(C(F)(F)F)c3)ccc21` (stereo not shown) [Compound 785, 4-methyl-N-(pyridin-2-yl)-7-(3-(trifluoromethyl)phenyl)-3,4-dihydro-1,8-naphthyridine-1(2H)-carboxamide]: the EC1.5 (concentration giving 1.5-fold activation) was less than 1 µM and the Emax is more than 200%.

Turning to `Cc1ccc(-c2ccc3c(n2)N(C(=O)Nc2cccc(OC[C@H](O)CO)n2)CCO3)cn1` [Compound 694], the Emax is more than 200% and the EC1.5 result was “B (EC1.5 1-25 μM)”.

As for `Cc1cncc(NC(=O)N2CCCOc3ccc(-c4cccc(N5CCCC5)c4)nc32)c1` [Compound 610], the Emax was more than 200% and the EC1.5 result is “B (EC1.5 1-25 μM)”.

On to `CN1C(=O)CN(C(=O)NC2CCOC2=O)c2nc(-c3cccc(C(F)(F)F)c3)ccc21` (stereo not shown) [Compound 522], for which the Emax is not above 200% and the EC1.5 entry is on record as “C (EC1.5>25 μM)”.

As to `CCN1CCCN(C(=O)Nc2cccnc2)c2nc(-c3cccc(Cl)c3)ccc21` [Compound 789, 7-(3-chlorophenyl)-1-ethyl-N-(pyridin-3-yl)-3,4-dihydro-1H-pyrido[2,3-b][1,4]diazepine-5(2H)-carboxamide], the EC1.5 (concentration giving 1.5-fold activation) is 1 to 25 µM and the Emax was more than 200%.

Take `Cc1cc(NC(=O)N2CCOc3ncc(-c4cccc(C(F)(F)F)c4)nc32)cc(C)n1` [Compound 726]: the EC1.5 (concentration giving 1.5-fold activation) was less than 1 µM and the Emax was more than 200%.

Turning to `O=C(Nc1ccncc1)N1CCOc2ccc(-c3ccccc3F)nc21` [Compound 544], the Emax is more than 200% and the EC1.5 entry is “B (EC1.5 1-25 μM)”.

For `O=C(Nc1ccc(CN2CCOCC2)nc1)N1CCOc2ccc(-c3cccc(C(F)(F)F)c3)nc21` [Compound 507, N-(6-(morpholinomethyl)pyridin-3-yl)-6-(3-(trifluoromethyl)phenyl)-2H-pyrido[3,2-b][1,4]oxazine-4(3H)-carboxamide], the Emax is more than 200% and the EC1.5 entry was “A (EC1.5<1.0 μM)”.

As to `Cc1cnc(NC(=O)N2CCCOc3ccc(-c4cccc(Cl)c4)nc32)s1` [Compound 704], the EC1.5 (concentration giving 1.5-fold activation) was in the range of 1 to 25 µM and the Emax is not above 200%.

For the compound `CC1(C)CN(C(=O)Nc2cncc(F)c2)c2nc(-c3cccc(F)c3)ccc2O1` [Compound 621], the Emax is more than 200% and the EC1.5 result is listed as “B (EC1.5 1-25 μM)”.

On to `Cc1cc(NC(=O)N2CCCOc3ccc(-c4cccc(Cl)c4)nc32)ncc1F` [Compound 863], for which the EC1.5 (concentration giving 1.5-fold activation) lay in the range of 1 to 25 µM and the Emax is not above 200%.

`O=C(Nc1ncccn1)N1CCCOc2ccc(-c3cccc(C(F)(F)F)c3)nc21` [Compound 643]: the Emax was more than 200% and the EC1.5 entry was “B (EC1.5 1-25 μM)”.

In the case of `CCN1CCCN(C(=O)Nc2ccncc2)c2nc(-c3cccc(Cl)c3)ccc21` [Compound 777], the EC1.5 (concentration giving 1.5-fold activation) lay within 1 to 25 µM and the Emax was more than 200%.

For the compound `O=C(Nc1ccncc1F)N1CCCCc2ccc(-c3cccc(C(F)(F)F)c3)nc21` [Compound 817], the EC1.5 (concentration giving 1.5-fold activation) is 1 to 25 µM and the Emax is more than 200%.

On to `CCN1C(=O)CCN(C(=O)Nc2ccncn2)c2nc(-c3cccc(Cl)c3)ccc21` [Compound 775], for which the EC1.5 (concentration giving 1.5-fold activation) was more than 25 µM and the Emax is not above 200%.

In the case of `CCN1CCCN(C(=O)Nc2cc(C)cc(C)n2)c2nc(-c3cccc(Cl)c3)ccc21` [Compound 806], the EC1.5 (concentration giving 1.5-fold activation) was more than 25 µM and the Emax was not above 200%.

With `CCN1C(=O)CCN(C(=O)Nc2cccc(C)n2)c2nc(-c3cccc(Cl)c3)ccc21` [Compound 776], the EC1.5 (concentration giving 1.5-fold activation) was more than 25 µM and the Emax is not above 200%.

As for `CC1(C)CCN(C(=O)Nc2ccccn2)c2nc(-c3cccc(C(F)(F)F)c3)ccc21` [Compound 827], the EC1.5 (concentration giving 1.5-fold activation) was less than 1 µM and the Emax is more than 200%.

For `Cc1nn(C)c(C)c1NC(=O)N1CCCOc2ccc(-c3cccc(Cl)c3)nc21` [Compound 879], the EC1.5 (concentration giving 1.5-fold activation) is more than 25 µM and the Emax is not above 200%.
